Where a name gives a salt, the structure may show the parent alone.
Columns and labels:
[1] = Solubility screen (solvent aliquots, visual inspection); type: physicochemical
Experimental: The experiments were carried out by adding the test solvent in aliquots to weighed portions of solid. Whether dissolution had occurred was judged by visual inspection after addition of each solvent aliquot. Solubility numbers recorded in Table 4 were calculated by dividing the weight of the sample by the total amount of solvent used to dissolve the sample. The actual solubilities may be greater than the numbers calculated because of the use of solvent aliquots that were too large or because of slow dissolution rates. All solubility measurements were carried out at room temperature unless noted otherwise.

[2] = Dynamic vapor sorption (DVS); type: physicochemical
Male Sprague-Dawley rats = experiment: Rat elevated zero-maze model of anxiety; type: in vivo
Description: The rat zero-maze model is a refined alternative to the plus-maze, the most widely used animal model of anxiety, and consists of an elevated annular platform, divided equally into four quadrants. Two opposite quadrants are enclosed by Perspex walls on both the inner and the outer edges of the platform, while the remaining two opposite quadrants are open being enclosed only by a Perspex “lip”. Animals will show a preference for the closed areas, and avoidance of the open sections is assumed to stem from a rodent's natural aversion to open, exposed spaces. The primary index of anxiety, which reflect changes in open arm preference, is the percentage of time spent on the open areas. A reduction in the amount of activity on the open areas is considered to reflect an increase in anxiety. Other, ethologically-based behaviours are also assessed as indices of anxiety. One of the most important is stretched attend postures (SAP) from closed to open quadrants. […] Shepherd, J K; et al., (1994) Behavioural and pharmacological validation of the elevated “zero-maze” as an animal model of anxiety. Psychopharmacol., 116:56-64.
Male Sprague-Dawley 200-250 g (Envigo UK) rats were used. Animals were group-housed (5 per cage; cage size: 40×40×20 cm) in a temperature-controlled environment (22±2° C.), under a 12 h light-dark cycle (lights on: 08:00 hours) for one week prior to testing. Food and water were freely available. Number of animals per group=5. Animals were moved into the experimental room 16-24 hours before testing.
The elevated 0-maze comprises a black Perspex annular platform (105 cm diameter, 10 cm width) elevated to 65 cm above ground level, divided equally into four quadrants. Two opposite quadrants are enclosed by clear red Perspex walls (27 cm high) on both the inner and outer edges of the platform, while the remaining two opposite quadrants are surrounded only by a Perspex “lip” (1 cm high) which serves as a tactile guide to animals on these open areas.
Subjects were weighed and tail marked before being injected. After a specified pre-treatment time, subjects were placed in a closed quadrant and a 5-min test period were recorded on videotape for subsequent analysis. The maze were cleaned with 5% methanol/water solution and dried thoroughly between test sessions. Behavioural measures comprise percentage time spent on the open areas (% TO) and frequency of stretched attend postures (SAP) from closed to open quadrants. Since the control groups were all treated identically with the same vehicle these were combined to increase power. The Chlordiazepoxide groups were also treated identically with the same dose so these were also combined to increase power. Animals are scored as being in the open area when all four paws were in an open quadrant and in the closed area only when all four paws have passed over the open-closed divide. All testing were carried out between 9.00 and 16.00 hours.
For each study, a 1-way ANOVA was conducted across vehicle, CDP, and drug treatment groups. Each group was compared to the vehicle group and a p-value for treatment determined by Fishers Least Significant Difference (LSD) test. This analysis was performed in GraphPad Prism (Version 9). Formulations: […]
Intraperitoneal (IP): Racemic methylone HCl was formulated in Vehicle 1 (Saline) for injection to concentrations of 1, 3 and 6 mg/mL to provide doses of 5, 15 and 30 mg/kg when administered ip in 5 mL/kg dosing volumes.
Intraperitoneal (IP): S-methylone HCl was formulated in Vehicle 1 (Saline) for injection to concentrations of 0.5, 1, 1.5, 3 and 6 mg/mL to provide doses of 2.5, 5, 7.5, 15 and 30 mg/kg when administered ip in 5 mL/kg dosing volumes.
Intraperitoneal (IP): R-methylone HCl was formulated in Vehicle 1 (Saline) for injection to concentrations of 1, 3 and 6 mg/mL to provide doses of 5, 15 and 30 mg/kg when administered ip in 5 mL/kg dosing volumes. […]

[3] = Plasma and brain concentration at the end of the zero maze study; type: in vivo, rat; conditions: terminal samples after 5, 15, 30 mg/kg ip; FIG. 68 and FIG. 69
Experimental: Terminal sampling. At the end of the study, terminal blood was collected from 2 of the vehicle treated rats (>5 mL) and from all methylone HCl treated rats (500 uL) by CP under CO2. Blood samples were placed into Eppendorf tubes on ice containing 22 μL/mL blood (vehicle treated) or 11 μL EDTA (93 mg/mL) (Methylone HCl treated rats) and gently mixed. After no longer than 30 min, blood samples were centrifuged at 10,000 rpm×3 min and plasma samples (>2 mL (vehicle) or 2×100 μL (Methylone HCl treated) placed into Eppendorf tubes (Vehicle) or 96 well plates on dry ice. Immediately after blood sampling, brains were excised, rinsed in saline, blotted, weighed and snap-frozen in liquid N2. All samples were stored at −20° C. until dispatched on dry ice for analysis.
Terminal sampling. At the end of the study, terminal blood was collected from 2 of the vehicle treated rats (>5 mL) and from all S-methylone HCl treated rats (500 uL) by CP under CO2. Blood samples were placed into Eppendorf tubes on ice containing 22 μL/mL blood (vehicle treated) or 11 μL EDTA (93 mg/mL) (S-methylone HCl treated rats) and gently mixed. […]

## CNC(C)C(=O)c1ccc2c(c1)OCO2 (racemic) [(rac)-Methylone Hydrochloride, 3,4-methylenedioxy-N-methylcathinone hydrochloride]
[1]; MeOH, room temperature
  Solubility: 48 mg/mL
[1]; MeOH/CHCl3 50/50, room temperature
  Solubility: 45 mg/mL
[2]; DVS (FIG. 26)
  relative humidity above which water uptake is seen: above 75 % RH
[2]; between 5% RH and 95% RH
  physical stability after the moisture sorption-desorption analysis: physically stable
[2]; exposed to 75% RH for 2 hours
  behaviour of the material on humidity exposure: became tacky and stuck to the vial
Male Sprague-Dawley rats; 5 mg/kg ip
  overall effect on anxiety: anxiogenic effect
Male Sprague-Dawley rats; 5 mg/kg ip, vs placebo
  time spent in the open arms: decrease in time spent in the open arms vs placebo
Male Sprague-Dawley rats; 15 mg/kg ip
  frequency of SAPs: dose dependent decrease in SAPs
  overall effect on anxiety: mixed anxiogenic anxiolytic effect
Male Sprague-Dawley rats; 15 mg/kg ip vs chlordiazepoxide 6 mg/kg ip
  decrease in SAPs compared with chlordiazepoxide: not as effective as chlordiazepoxide
Male Sprague-Dawley rats; 15 mg/kg ip, vs placebo
  time spent in the open arms: no difference from placebo in time spent in the open arms
Male Sprague-Dawley rats; 30 mg/kg ip
  frequency of SAPs: decrease in SAPs
  time spent in the open arms: significant decrease in time spent in the open arms
Male Sprague-Dawley rats; high dose level
  anxiolytic effects compared with chlordiazepoxide: anxiolytic effects as effective as chlordiazepoxide
Male Sprague-Dawley rats; lower doses, ip
  anxiogenic effects at lower doses: anxiogenic effects at lower doses
Male Sprague-Dawley rats; specific doses, ip, 30 min pretest, FIGS. 62-64
  time in the open arms: increase time in the open arms
Male Sprague-Dawley rats; specific doses, ip, 30 min pretest, vs chlordiazepoxide 6 mg/kg, FIGS. 65-67
  frequency of SAPs: decreased the frequency of SAPs as effectively as the benzodiazepine chlordiazepoxide
[3]
  concentration in plasma and brain: increased in both brain and plasma at the higher doses
